Reference: patent US8975289B2, “Benzyl aralkyl ether compounds, method for preparing same, intermediate compounds, use of said compounds, method for treatment and/or prevention, pharmaceutical composition and medicament containing same” (priority 2009, dated 2015)
Converted amounts (≈) assume the structure as drawn.

Tests used:
Type in all cases: cell-based
[1] = test system: Trichophyton rubrum 40005; experiment: Broth microdilution MIC (M38-A), filamentous fungi, strain XI
Procedure: (§1) For the experiments of the present invention, the dermatophyte-type fungi strains that were obtained from clinical isolates and laboratory isolates, as described in Table 2 as follows, were used:
(§2) The fungal strains were grown on agar potato medium in a sloping chute at a temperature of 30° C. for a period of 7 to 15 days.
(§3) For the experiments, the compound 1-[2-(2,4-dichlorophenyl)-2-{[4-(trifluoromethyl)benzyl]oxy}ethyl]-1H-imidazole (BL-123) in the form of its nitrate salt and miconazole nitrate were used. Both compounds were dissolved in dimethyl sulfoxide (DMSO) to match the final concentration of the compound equal to or less than 1%.
(§4) The methodology used to test the sensitivity of the agent was of broth microdilution according to the method described in Standard M38-A (Reference method for broth dilution tests for determining the sensitivity to antifungal therapy for filamentous fungi; NCCLS, volume 22 No. 16, USA, 2008) as follows.
(§5) The fungus was cultivated pursuant to item 4.1. To the tubes wherein the fungi were grown, 5 mL of saline solution were added in order to extract the fungi from the agar surface. Then, this homogeneous suspension was transferred to a new tube and the colony-forming units (CFUs) were quantified according to counting methods: (i) in Sabouraud dextrose agar plates and (ii) in a Neubauer chamber.
(§6) Then, the fungi strains listed in Table 2 were inoculated in duplicate in a 96-well plate. There were used inocula of from 2 to 6×10^3 CFU/mL of fungi, per well, in a total volume of 0.2 mL of RPMI-1640 (containing L-glutamine and without bicarbonate) buffered at pH 7.0 with MOPS (acid 3-(N-morpholine) 15 propanesulfonic). The procedure was performed in a laminar flow.
(§7) The compounds to be tested were added in a serial dilution, in duplicate, in final concentrations of 16 μg/mL; 8 μg/mL; 4 μg/mL; 2 μg/mL; 1 μg/mL; 0.5 μg/mL; 0.25 μg/mL; 0.125 μg/mL; 0.0625 μg/mL; or 0.03125 μg/mL in culture medium present in each well.
(§8) The incubation of fungi with these compounds was performed by 4, 5, 6 and 7 days at temperatures from 30 to 35° C.
(§9) The fungi quantification was carried out with the growth of fungi in each well being compared to the growth occurred in the negative control by means of a mirror reading. The negative control is represented by fungi grown in culture medium in the absence of the tested compounds. The methodology of this comparison is the numerical rating to which the microdilution well was submitted. […]

Microsporum canis 373 = experiment: Broth microdilution MIC (M38-A), filamentous fungi, strain VI
Procedure: as §1, §2, §3, §4, §5, §6, §7, §8, §9

[2] = test system: Staphylococcus epidermidis 12228; experiment: Broth microdilution MIC (M7-A6), bacteria, strain XVII; settings: Staphylococcus epidermidis; strain XVII 12228, 24 hours incubation; read-out: MIC
Procedure: For the experiments of the present invention (i) yeast strains obtained from clinical isolates and laboratory isolates, and (ii) bacterial strains obtained from laboratory isolates were used, as described in Table 5 as follows. […] The compounds were dissolved in dimethyl sulfoxide (DMSO) to match the final concentration of the compound equal to or less than 1%. The methodology used to test the sensitivity of the agent was broth microdilution according to the method described in Standard M7-A6 (Methodology of sensitivity tests to antimicrobial agents by dilution for bacteria with aerobic growth-6th Edition: NCCLS, volume 23, No. 2, USA, 2003), as follows. […] Then the suspensions were diluted in Mueller Hinton culture medium to a final concentration of 5×10^4CFU/mL. The diluted suspensions were inoculated in 0.1 mL in duplicates in […] plates. The procedure was performed in a laminar flow. […] Incubation of fungi with these compounds was carried out for 24 hours at a temperature of 30 to 35° C. […] We have agreed in this experiment that the turbid medium is the result of microbial growth and the presence of deposit and a clear medium represents the absence of microbial growth. The minimum inhibitory concentration (MIC) was defined as the lowest tested drug concentration that prevents any degree of bacterial growth.

Candida albicans 10231 = experiment: Broth microdilution MIC (M27-A2), yeast, strain XIV; settings: Candida albicans; strain XIV 10231, 48 hours incubation; read-out: MIC
Procedure: (§10) For the experiments of the present invention (i) yeast strains obtained from clinical isolates and laboratory isolates, and (ii) bacterial strains obtained from laboratory isolates were used, as described in Table 5 as follows. The yeast strains were grown in culture medium Sabouraud Dextrose Agar maintained at a temperature of 35° C. for 48 hours. […] The compounds were dissolved in dimethyl sulfoxide (DMSO) to match the final concentration of the compound equal to or less than 1%. The methodology used to test the sensitivity of the agent was broth microdilution according to the method described in Standard M27-A2 (Reference method for broth dilution tests to determine the sensitivity of yeasts to antifungal therapy-second edition, NCCLS, volume 22 number 15, USA, 2002) as follows. […] Then the suspensions were diluted in culture medium RPMI-1640 (buffered with MOPS 0.165 mol/l) at a final concentration of 50 to 2500 CFU/mL. The diluted suspensions were inoculated in duplicate in a 96-well plate. The procedure was performed in a laminar flow. […] The incubation of fungi with these compounds was carried out for 48 hours at temperature of 30 to 35° C. […] We have agreed in this experiment that the turbid medium is the result of microbial growth and the presence of deposit and a clear medium represents the absence of microbial growth. The minimum inhibitory concentration (MIC) was defined as the lowest tested drug concentration that prevents any degree of […] growth.

[3] = test system: Candida parapsilosis 22019; experiment: Broth microdilution MIC (M38-A), filamentous fungi test, strain IX; settings: 96 h; strain IX 22019, reading Day 4, average of four experiments
Procedure: as §1, §2, §3, §4
The fungus was cultivated pursuant to item 4.1. […] Then, this homogeneous suspension was transferred to a new tube and the colony-forming units (CFUs) were quantified according to counting methods: (i) in Sabouraud dextrose agar plates and (ii) in a Neubauer chamber. […]
The fungi quantification was carried out with the growth of fungi in each well being compared to the growth occurred in the negative control by means of a mirror reading. […]

[4] = test system: Microsporum gypseum 40051; experiment: Broth microdilution MIC (M38-A), filamentous fungi, strain XII; settings: Nannizzia gypsea
Procedure: as §1, §2, §3, §4, §5, §6, §7, §8, §9

Candida glabrata 2001 = experiment: Broth microdilution MIC (M27-A2), yeast, strain XVI; settings: Nakaseomyces glabratus; strain XVI 2001, 48 hours incubation; read-out: MIC
Procedure: as §10

[5] = test system: Trichophyton mentagrophytes 9533; experiment: Broth microdilution MIC (M38-A), filamentous fungi, strain XIII
Procedure: as §1, §2, §3, §4, §5, §6, §7, §8, §9

[6] = 96 h, strain XI 40005, reading Day 4, average of four experiments
[7] = 168 h, strain XI 40005, reading Day 7, average of four experiments
[8] = 96 h, strain VI 373, reading Day 4, average of four experiments
[9] = 168 h, strain VI 373, reading Day 7, average of four experiments
[10] = 96 h, strain XII 40051, reading Day 4, average of four experiments
[11] = 168 h, strain XII 40051, reading Day 7, average of four experiments
[12] = 96 h, strain XIII 9533, reading Day 4, average of four experiments
[13] = 168 h, strain XIII 9533, reading Day 7, average of four experiments

| Structure (SMILES) | MIC [1, 6] [µg/mL] | MIC [1, 7] [µg/mL] | MIC (Microsporum canis 373; [8]) [µg/mL] | MIC (Microsporum canis 373; [9]) [µg/mL] | MIC [2] [µg/mL] | MIC (Candida albicans 10231) [µg/mL] | MIC [3] [µg/mL] | MIC [4, 10] [µg/mL] | MIC [4, 11] [µg/mL] | MIC (Candida glabrata 2001) [µg/mL] | MIC [5, 12] [µg/mL] | MIC [5, 13] [µg/mL] |
| --- | --- | --- | --- | --- | --- | --- | --- | --- | --- | --- | --- | --- |
| FC(F)(F)c1ccc(COC(Cn2ccnc2)c2ccc(Cl)cc2Cl)cc1 (stereo not drawn) [BL-123, 1-[2-(2,4-dichlorophenyl)-2-{[4-(trifluoromethyl)benzyl]oxy}ethyl]-1H-imidazole] | 0.25 (≈ 0.602 µM) | 0.5 (≈ 1.2 µM) | 0.125 (≈ 0.301 µM) | 0.5 (≈ 1.2 µM) | 4 (≈ 9.63 µM) | 8 (≈ 19.3 µM) | 2 (≈ 4.82 µM) | 0.03 (≈ 0.0722 µM) | 0.03 (≈ 0.0722 µM) | 0.125 (≈ 0.301 µM) | 0.03 (≈ 0.0722 µM) | 0.125 (≈ 0.301 µM) |
| Clc1ccc(COC(Cn2ccnc2)c2ccc(Cl)cc2Cl)c(Cl)c1 (stereo not drawn) [Miconazole, miconazole, reference compound] | 0.5 (≈ 1.2 µM) | 1 (≈ 2.4 µM) | 0.5 (≈ 1.2 µM) | 1 (≈ 2.4 µM) | 2 (≈ 4.81 µM) | 4 (≈ 9.61 µM) | 1 (≈ 2.4 µM) | 0.03 (≈ 0.0721 µM) | 0.06 (≈ 0.144 µM) | 0.125 (≈ 0.3 µM) | 0.06 (≈ 0.144 µM) | 0.125 (≈ 0.3 µM) |
